Source: patent US20250099420A1, “SMALL MOLECULE MODULATORS OF GPR139 COMPLEX” (University of Florida Research Foundation, Incorporated, priority 2022, published 2025)
Like-named read-outs stand apart in the source and are kept apart here.

Key:
[1] = target: T1, GPR139 (Homo sapiens, UniProt Q6DWJ6); assay: GPR139 Agonist titration / agonist counterscreen assay (calcium detection, HEK-GPR139 cells); assay type: cell-based; parameters: expressed in transfected cells; host or cells: HEK Aequorin cells, Maxcyte transient transfection; conditions: agonist counterscreen of the antagonists; for EC50: scientific notation, molarity, read-out: GRP139 Agonist activity EC50
T1 sequence (Q6DWJ6 1-353): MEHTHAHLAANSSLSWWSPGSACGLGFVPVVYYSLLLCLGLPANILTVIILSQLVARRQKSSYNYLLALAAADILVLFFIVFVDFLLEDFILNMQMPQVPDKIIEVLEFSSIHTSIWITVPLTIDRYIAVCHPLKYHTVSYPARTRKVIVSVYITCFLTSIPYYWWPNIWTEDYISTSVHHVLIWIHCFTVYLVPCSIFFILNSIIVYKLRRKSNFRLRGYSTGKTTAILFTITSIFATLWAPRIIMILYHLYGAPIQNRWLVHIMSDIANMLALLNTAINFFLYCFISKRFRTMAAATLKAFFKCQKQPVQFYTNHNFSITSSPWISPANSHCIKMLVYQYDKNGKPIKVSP
Protocol: GPR activity was assessed using a calcium detection assay. […] Negative control samples were treated with DMSO. […] Intracellular calcium was measured using Calcium 5.

[2] = target: T1, GPR139; assay: GPR139 Antagonist titration assay (calcium detection, HEK-GPR139 cells, vs EC80 of S-JNJ-63533054); conditions: for GPR139 Antagonist Activity Averaged Max % Response (±St. Dev.): activity relative to known control; for GPR139 Antagonist Activity Hill Slope: fitted dose-response curve; for GPR139 Antagonist Activity Lipophilic Efficiency (logD): based on logD; for GPR139 Antagonist Activity Lipophilic Efficiency (logP): based on logP
[3] = tested on: parental HEK cells; assay: HEK parental Antagonist Counterscreen Assay (non-transfected cells, acetylcholine control); assay type: cell-based; conditions: for EC50: Homo sapiens, HEK293, acetylcholine as control, scientific notation, molarity
[4] = target: T1, GPR139
[5] = target: T1, GPR139; assay: [3H]JNJ-63533054 radioligand competition binding assay on membranes of HEK293T/17 cells; parameters: HA signal peptide (HASP) (N); expressed in transfected cells; host or cells: HEK293T/17 cells (membrane preparation); conditions: for inhibition at 10 µM: 10 μM of the indicated compound, (10 μM) JNJ-63533054 as printed in title; for Ki: Ki=IC50/(1+C/Kd), membranes of HEK293T/17 cells expressing human GPR139, read-out: Ki ± SEM
Source text: Eighteen compounds were selected for additional study. The compounds were re-synthesized and tested in radioligand binding competition assays for their ability to displace [^3H]-labeled reference agonist JNJ-63533054 on GPR139. The GPR139 construct used (pCDNA3.1-HASP-HA-GPR139) contained an N-terminal HA signal peptide (HASP), followed by an HA tag and human GPR139 (NM_001002911.4). HEK293T/17 cells were maintained in Dulbecco's modified Eagle's medium with 10% (v/v) fetal bovine serum, nonessential amino acids, and 1 mM sodium pyruvate.
Competition binding assay: Radioligand binding assay used human GPR139 expressed in HEK293T/17 cells. HEK293T/17 cells were transfected pCDNA3.1-HASP-HA-GPR139. 48 h after, cells were detached from plates by pipetting with PBS, centrifuged at 500×g for 5 min, and then the fluid was aspirated away. The cell pellets were frozen with liquid nitrogen and stored at −80° C. Pellets were homogenized in TE buffer (50 mM Tris-HCl, pH 7.4, 5 mM EDTA) and centrifuged at 1000×g at 4° C. for 5 min. Supernatant was collected and recentrifuged at 30,000×g at 4° C. for 30 min. The pellet was rehomogenized in TE buffer and incubated for 60 minutes at room temperature with eight concentrations of [^3H]JNJ-63533054 (specific activity 24.7 Ci/mmol) ranging from 0.024 nM to 400 nM. The binding reaction was terminated by filtration through GF/C filter (Waterman) followed by washes with cold TE buffer. Filters were dried in a hood overnight followed by the addition of scintillation fluid. Bound radioactivity was counted on a Hidex 600 liquid scintillation counter. […] Nonspecific binding was determined with 10 μM JNJ-63533054. The Kd values of the radioligands and IC50 of the antagonist were calculated by Graphpad Prism. Ki values were calculated as Ki=IC50/(1+C/Kd), where C is concentration of the radioligand.
Various concentrations of selected ligands were then added in the presence of 10 nM [^3H]-JNJ-63533054 and their ability to displace [^3H]labeling on cellular membranes was assessed. FIGS. 3B and 3C present representative data obtained in these experiments. […] The results of these experiments are presented in the Table 3 and confirm selective binding the compounds to GPR139 thereby validating their interaction with the intended target.

Row | SMILES | GRP139 Agonist activity Averaged Max % Response (±St. Dev.) [1] | EC50 [1] [µM] | GPR139 Antagonist Activity Ligand Efficiency [2] | GPR139 Antagonist Activity Averaged Max % Response (±St. Dev.) [2] [%] | GPR139 Antagonist Activity Hill Slope [2] | GPR139 Antagonist Activity Lipophilic Efficiency (logD) [4] | GPR139 Antagonist Activity Lipophilic Efficiency (logP) [4] | inhibition at 10 µM [5] [%] | Ki [5] [µM] | EC50 [2] [µM] | GPR139 Antagonist Activity Lipophilic Efficiency (logD) [2] | GPR139 Antagonist Activity Lipophilic Efficiency (logP) [2] | HEK antagonist activity Averaged Max % Response (±St. Dev.) [3] [%] | EC50 [3] [µM]
1 | COc1ccc(-n2cc(-c3ccccc3)nc2SCC(=O)Nc2ccccc2C)cc1 [SR-01000555409] | −4.8E+0 ± 5.84 ^ % | > 13.6 | 0.24 | 86.26 ± 1.14 | 0.79 | −708.8E−3 | −708.9E−3 |  |  |  |  |  | 31.02 ± 1.30 | 
2 | CCOC(=O)C(CC)Oc1ccc2c(C)c(Cc3ccccc3)c(=O)oc2c1 (stereo not shown) [SR-01000421299] | 10.58 ± 2.83% | > 9.8 | 0.26 | 74.1 ± 13.55 | 1.98 |  |  | 65 ± 3.44 | 1.81 ± 0.04 | 7.2 | 0.17 | 0.17 | 7.76 ± 14.27 | > 9.8
3 | CCOC(=O)c1ccc2nc(C)c3c(c2c1)OC(C(C)(Cl)Br)C3 (stereo not shown) [SR-01000220077] | 29.53 ± 3.67% | > 14.1 | 0.32 | 82.15 ± 3.63 | 0.74 |  |  | 77.8 ± 5 | 7.31 ± 0.16 | 4.7 | 1.23 | 1.20 | 5.29 ± 23.62 | > 14.1
4 | CCOC(=O)c1c(C)nc2c(c1-c1ccc(F)cc1)C(=O)CC(c1ccc(Cl)cc1)C2 (stereo not shown) [SR-01000419112] | 0.45 ± 5.31% | > 11.7 | 0.23 | 67.9 ± 10.41 | 1.28 |  |  | 102 ± 4.88 | 0.98 ± 0.02 | 7.8 | 0.44 | 0.44 | 18.74 ± 4.66 | > 11.7
5 | COc1ccc(-c2noc(CN3CCCN(c4ccc(F)cc4)CC3)n2)c(OC)c1OC [SR-01000169333] | 2.42 ± 7.61% | > 14.1 | 0.22 | 66.19 ± 8.60 | 1.11 |  |  | 64.5 ± 1.23 | 4.09 ± 0.09 | 8.4 | 1.64 | 1.37 | 9.54 ± 10.14 | > 14.1
6 | O=C(CCCC(=O)OCC(Cl)=C(Cl)Cl)Nc1ccccc1F [SR-01000195221] | 3.53 ± 6.53% | > 14.1 | 0.33 | 86.87 ± 1.46 | 0.88 |  |  | 77.7 ± 1.19 | 9.98 ± 0.23 | 6.3 | 1.71 | 1.71 | 28.17 ± 14.51 | > 14.1

Now from value to molecule, other results behind:

Row | GRP139 Agonist activity Averaged Max % Response (±St. Dev.) [1] | EC50 [1] [µM] | GPR139 Antagonist Activity Ligand Efficiency [2] | GPR139 Antagonist Activity Averaged Max % Response (±St. Dev.) [2] [%] | GPR139 Antagonist Activity Hill Slope [2] | GPR139 Antagonist Activity Lipophilic Efficiency (logD) [4] | GPR139 Antagonist Activity Lipophilic Efficiency (logP) [4] | inhibition at 10 µM [5] [%] | Ki [5] [µM] | EC50 [2] [µM] | GPR139 Antagonist Activity Lipophilic Efficiency (logD) [2] | GPR139 Antagonist Activity Lipophilic Efficiency (logP) [2] | SMILES | HEK antagonist activity Averaged Max % Response (±St. Dev.) [3] [%] | EC50 [3] [µM]
7 | 19.36 ± 5.93% | > 14.1 | 0.27 | 67.66 ± 7.67 | 2.60 | 4.02 | 0.66 |  |  |  |  |  | O=C(Nc1ccccc1C(=O)O)c1ccc(Oc2ccc([N+](=O)[O-])cc2)cc1 [SR-01000201144] | 81.74 ± 3.36 | 
8 | 16.98 ± 6.81% | > 14.1 | 0.26 | 64.21 ± 3.85 | −1.40 |  |  | 87.2 ± 2.37 | 3.05 ± 0.07 | 7.7 | 0.51 | 0.36 | CC1CCCC(NC(=O)c2cccc(NS(=O)(=O)c3ccc(Br)cc3)c2)C1C (stereo not shown) [SR-01000594343] | 10.38 ± 17.91 | > 14.1
9 | 45.23 ± 2.15% | > 14.1 | 0.34 | 102.3 ± 0.93 | 1.14 |  |  | 35.6 ± 21.2 | 7.14 ± 0.16 | 2.3 | 1.45 | 1.45 | Cc1cccc(NC(=O)CCC(=O)OCc2ccc(Br)cc2)c1 [SR-01000258561] | 50.40 ± 13.43 | 13.8
10 | 4.67 ± 4.93% | > 14.1 | 0.31 | 84.30 ± 2.68 | 0.99 |  |  | 59.3 ± 7.51 | 4.91 ± 1.1 | 2.1 | 1.99 | 1.99 | O=C(CS(=O)(=O)c1ccccc1)Nc1ccc(Oc2ccccc2)cc1 [SR-01000263867] | 20.24 ± 7.73 | > 14.1
11 | 4.38 ± 3.28% | > 14.1 | 0.42 | 63.84 ± 2.29 | 0.87 |  |  | 54.3 ± 5.98 | 0.13 ± 0.01 | 4.3 | 0.78 | 0.78 | Cc1cc(I)ccc1NC(=O)CSc1cccs1 [SR-01000253143] | 22.82 ± 1.84 | > 14.1
12 | 1.17 ± 6.37% | > 14.7 | 0.28 | 80.63 ± 3.57 | 0.70 |  |  | 21.8 ± 14.1 | 0.92 ± 0.02 | 8.6 | 1.63 | 0.55 | Nc1cccc(C(=O)Nc2cc(O)n(-c3c(Cl)cc(Cl)cc3Cl)n2)c1 [SR-01000514922] | 16.24 ± 5.67 | > 14.7
